Reference: patent publication US11154543B2, “P38 MAP kinase inhibitors for wound healing” (The Schepens Eye Research Institute, Inc., priority 2015, dated 2021)
“Also recorded” adds a separate entry of the source.

Tests used:
Assay type in all cases: cell-based
[1] = tested on: human corneal fibroblasts (HCF); assay: αSMA western blot in human corneal fibroblasts ± TGF-β1; details: for αSMA protein expression in the presence of TGF-β1: inhibitor 24 h, then inhibitor + TGF-β1 24 h, Birb-796 10 μM, SB239063 20 μM, SB203580 5 uM, compared with HCF+TGF-β1; for αSMA expression (ratio of αSMA to β actin), TGF-β1-induced increase: serum-free, 10 uM inhibitor pre-treatment 24 h, then inhibitor + 2 ng/ml TGF-β1 24 h, compared with TGF-β1 alone (lane 2)
Procedure: FIG. 1 is an image of a representative western blot of human corneal fibroblasts cultured with 1) Basic Medium (BM: Eagles minimum essential medium) for 48 hours; 2) BM for 24 hours, then BM+TGF-β1 for 24 hours, 3) BM for 24 hours, then BM+p38 inhibitor for 24 hours, and 4) BM+p38 Inhibitor for 24 hours, then BM+p38 inhibitor+TGFβ1. Graph of SMA corrected per lane with internal control (β-actin).
FIG. 4 is a graph depicting analysis of αSMA protein expression in human corneal fibroblasts cultured with 1) Basic Medium (BM: Eagles minimum essential medium) for 48 hours; 2) BM for 24 hours, then BM+TGF-β1 for 24 hours, 3) BM for 24 hours, then BM+Birb-796 for 24 hours, 4) BM+Birb-796 for 24 hours, then BM+Birb-796+TGF-β1 for 24 hours; 5) BM for 24 hours, then BM+SB239063 for 24 hours; 6) BM+SB239063 for 24 hours, then BM+SB239063+TGF-β1 for 24 hours; 7) BM for 24 hours, then BM+SB203580 for 24 hours; and 8) BM+SB203580 for 24 hours, then BM+SB203580+TGF-β1 for 24 hours. Graph of SMA corrected per lane with internal control (β-actin).
The protocol for alpha smooth muscle actin (αSMA) testing in human corneal fibroblasts (HCF) is shown below using treatment with/without p38 inhibitor (SB202190) as an example treatment. • 1. Grow HCF (human corneal fibroblast cells) in 100 mm dishes (×12). • 2. When cells get 60-70% confluent, rinse with PBS for 3 times. Then: • a. Put serum-free EMEM to starve cells overnight. (9×) • b. Put serum-free EMEM with 10 uM of p38 inhibitor (SB202190) overnight to pre-treat cells. (3×) • 3. Next day, treat cells as follows and incubate overnight: • c. 10 ml of serum-free EMEM (3×) • d. 10 ml of serum-free EMEM with 2 ng/ml of TGF-β1. (3×) • e. 10 ml of serum-free EMEM with 10 uM of p38 inhibitor (SB202190). (3×) • f. 10 ml of serum-free EMEM with 10 uM of p38 inhibitor (SB202190) and 2 ng/ml of TGF-β1 into pre-treated dishes (2b). (3×) • 4. Harvest cells by trypsinization and store cells at −80° C.
(§1) Samples were lysed with RIPA buffer and western blot analysis was performed, as previously described (Chung E H, IOVS 1999; 40:1952-8) with minor changes. Membranes with separated proteins were probed with anti-αSMA (alpha-smooth muscle actin) and β-Actin (beta-actin) according to the protocol in Example 1. After reaction with corresponding DyLight secondary antibodies, membranes were scanned on Odyssey and software was used to measure the bands (ImageJ, v. 1.5), and the data was analyzed and plotted (Prism 5.0; GraphPad software).
The above protocol was utilized to assay αSMA expression in human corneal and skin fibroblasts under different culture conditions, including in the presence of p38 inhibitor. […] In FIG. 3, high levels of αSMA indicate that most dermal fibroblasts in culture were already myofibroblast cells (lane 1).
Three additional p38 inhibitors shown in Table 1 below were test in HCF. […] The concentrations of these three inhibitors were not optimized and it is believed that with higher concentration of these p38 inhibitors, αSMA expression will be decreased to a greater extent.

[2] = tested on: human corneal 3-D constructs (HCF and their self-assembled matrix); assay: αSMA western blot in human corneal 3-D stromal constructs
Procedure: FIG. 6 includes a bar graph and a western blot showing analysis of αSMA expression in human corneal 3-D constructs. Human Corneal Fibroblasts (HCF) were cultured as follows: 1) RM (Regular Medium: Eagle's minimum essential medium+10% FBS for 9 days); 2) T1 (RM for 24 hours, then RM+2 ng/ml of TGF-beta (T1) for 8 days); 3) p38 inhibitor (p38inh) (RM for 24 hours, then RM+10 μM of p38 inhibitor [SB202190] for 8 days); and 4) T1+p38inh (RM+SB202190 for 24 hours, then RM+SB202190+TGF-1 for 8 days). Graph of αSMA corrected per lane with internal control (β-actin). […] The western blot is shown in the upper right corner.
Data shown in previous figures were generated using cells in culture. […] The system a cell-based 3-D corneal stromal construct containing human corneal fibroblasts (HCF) and their self-assembled matrix. This art-recognized model mimics stromal development and wound healing. To test this, we cultured human corneal fibroblasts (HCF) in 0.5 mM Vitamin C±2 ng/ml TGF-β1 (T1) and/or 10 μM p38 inhibitor #1 (SB202190) for 9 days. The media was changed every day. After 9 days, the samples were harvested and analyzed for αSMA by western blot (WB). […] The data also indicate that p38 inhibitor(s) inhibit scar formation during corneal wound healing.

[3] = tested on: human corneal myofibroblasts (T1-treated HCF); assay: Reversal of αSMA in TGF-β1-differentiated human corneal myofibroblasts (western blot); details: HCF pre-treated 2 ng/ml T1 for 3 days
Procedure: FIGS. 7A and 7B show analysis of αSMA expression in HCF cultured as follows: 1) HCF: RM, 2) T1: RM+T1 (for 3 days), or 3) RM+T1 for 3 days, then RM±p38inh for 1 (D1), 2 (D2), or 3 days (D3). (A) Representative western blot.
In this experiment, we examined if p38 inhibitor could not only reduce, but reverse αSMA levels, thus converting myofibroblasts back to their fibroblastic phenotype. To do this, HCF were treated with 2 ng/ml of T1 for 3 days. This allowed for the majority of the HCF to differentiate to their myofibroblastic phenotype with high levels of αSMA expression. After rinsing with PBS three times, these T1-treated cells were split into two groups: 1) regular medium (RM) and 2) p38 inhibitor (p38inh) medium. Media was changed every day. Cells were harvested after 1, 2, or 3 days for αSMA analysis by WB. […] The T1 cells then were split into two groups, RM or p38inh, and the appropriate medium was applied. […] On day 3 (D3), αSMA levels in both media samples decreased.

human dermal fibroblasts = assay: αSMA western blot in human dermal fibroblasts ± TGF-β1; details: BM+10% FBS, p38 inhibitor 24 h pre-treatment ± TGF-β1, compared with normal culture (lane 1) and T1 (lane 2)
Procedure: FIG. 3 is an image of a representative western blot of human dermal fibroblasts cultured with 1) Basic Medium (BM: Eagles minimum essential medium)+10% FBS for 48 hours; 2) BM+10% FBS for 24 hours, then BM+10% FBS+TGFβ1 for 24 hours, 3) BM+10% FBS for 24 hours, then BM+10% FBS+p38 inhibitor for 24 hours, and 4) BM+10% FBS+p38 Inhibitor for 24 hours, then BM+10% FBS+p38 inhibitor+TGF-β1. Graph of SMA corrected per lane with internal control (β-actin).
The protocol for alpha smooth muscle actin (αSMA) testing in human corneal fibroblasts (HCF) is shown below using treatment with/without p38 inhibitor (SB202190) as an example treatment. • 1. Grow HCF (human corneal fibroblast cells) in 100 mm dishes (×12). • 2. When cells get 60-70% confluent, rinse with PBS for 3 times. Then: • a. Put serum-free EMEM to starve cells overnight. (9×) • b. Put serum-free EMEM with 10 uM of p38 inhibitor (SB202190) overnight to pre-treat cells. (3×) • 3. Next day, treat cells as follows and incubate overnight: • c. […]
as §1, with “Membranes with separated proteins were probed with anti-αSMA (alpha-smooth muscle actin) and β-Actin (beta-actin) according to the protocol in Example 1.” left out, “software). […]” for “software).”

[4] = tested on: human corneal fibroblasts; assay: Indirect immunofluorescence of SMA in human corneal fibroblasts; details: HCF; p38 inhibitor 24 h, then p38 inhibitor + TGF-β1; compared with TGF-β1 alone (FIG. 2B)
Text: FIGS. 2A-2D are representative indirect immunofluorescent images of human corneal fibroblasts. […] Grey stripes staining=SMA and grey dots staining=DAPI, a nuclear counterstain. […] This is in agreement with the western blot in FIG. 1.

## Cc1ccc(-n2nc(C(C)(C)C)cc2NC(=O)Nc2ccc(OCCN3CCOCC3)c3ccccc23)cc1 [Birb-796, Doramapimod]
[1]
  αSMA protein expression in the presence of TGF-β1: significantly different

## Oc1ccc(-c2nc(-c3ccc(F)cc3)c(-c3ccncc3)[nH]2)cc1 [SB202190, 4-(4-Fluorophenyl)-2-(4-hydroxyphenyl)-5-(4-pyridyl)1H-imidazole]
[2]; 10 μM inhibitor + 2 ng/ml TGF-β1, 9 days (lane 4 vs lane 1)
  αSMA expression, T1 + p38 inhibitor versus control: decreased as compared with control
[2]; 10 μM inhibitor + 2 ng/ml TGF-β1, 9 days (lane 4 vs lane 2), p<0.001
  αSMA expression, T1 + p38 inhibitor versus T1: significantly lower than T1; also recorded: significantly different
[2]; 10 μM inhibitor, 9 days (lane 3), compared with control, p<0.05
  αSMA expression, p38 inhibitor alone: significantly decreased; also recorded: significantly lower than others
[3]; then p38inh medium 1 day, compared with T1 control
  αSMA levels on day 1 (D1): continued to increase
[3]; then p38inh medium 2 days, compared with RM sample, p<0.05
  αSMA levels on day 2 (D2): significantly lower than the RM sample; also recorded: decreased significantly
[3]; then p38inh medium 3 days, compared with RM sample
  αSMA levels on day 3 (D3): continued to be lower than that in the RM sample
[1]
  αSMA expression (ratio of αSMA to β actin), TGF-β1-induced increase: inhibits the TGF-β1 induced increase in expression of αSMA
[1]; listed as p38 inhibitor
  αSMA expression (ratio of αSMA to β actin), TGF-β1-induced increase: significantly different
Human dermal fibroblasts
  αSMA expression (corrected with β-actin): significantly decreased
Human dermal fibroblasts; listed as p38 inhibitor
  αSMA expression (corrected with β-actin): significantly different
[4]
  αSMA staining / number of SMA-positive cells: mitigated

## C[S+]([O-])c1ccc(-c2nc(-c3ccc(F)cc3)c(-c3ccncc3)[nH]2)cc1 (centres unmarked) [SB203580, 4-(4′-Fluorophenyl)-2-(4′-methylsulfinylphenyl)-5-(4′-pyridyl)-imidazole]
[1]
  αSMA protein expression in the presence of TGF-β1: significantly different

## COc1nccc(-c2c(-c3ccc(F)cc3)ncn2C2CCC(O)CC2)n1 (stereo not drawn) [SB239063, trans-1-(4-Hydroxycyclohexyl)-4-(4-fluorophenyl)-5-(2-methoxypyridimidin-4-yl)imidazole]
[1]
  αSMA protein expression in the presence of TGF-β1: significantly different
